# “Also recorded” adds a separate entry of the source.
# Experiments:
# [1] = system: multidrug-resistant S. aureus; assay: Sensitization of antibiotic-resistant bacteria (compound plus breakpoint antibiotic concentration); format: cell-based, Staphylococcus aureus; settings: for Effect on viability in combination with chloramphenicol: chloramphenicol 8 mg/L; for Effect on viability in combination with chloramphenicol / Effect on viability in combination with gentamicin: 24 h; for Effect on viability in combination with gentamicin: gentamicin 1 mg/L; for Gentamicin-resistant phenotype of S. aureus (result in words): gentamicin breakpoint concentration
# Outline: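 A multidrug-resistant clinical isolate of S. aureus from the General University Hospital in Prague was grown in Mueller–Hinton broth with flavonoid derivatives combined with a EUCAST breakpoint concentration of antibiotic. MIC was determined according to ISO 20776-1: 2020, and viability was read as absorbance at A590 nm after 24 h at 37 °C and 150 rpm.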
# [2] = system: Vibrio campbellii BAA 1119 (AI-2); assay: microbe, parasite or virus in culture; format: cell-based; settings: for EC50: Vibrio campbellii, BAA1119, 16 h, read-out: EC50 (concentration that halved the communication); for SI (selectivity index): ratio IC50 (viability) / EC50 (communication), BAA 1119
# Outline: (§1)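 Mutant V. campbellii strains responding only to AI-1 (BAA-1118) or AI-2 (BAA-1119), seeded at 5 × 10^5 CFU/mL in Autoinducer Bioassay medium (potassium phosphate pH 7.0); compounds at final 0.2–200 µM.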
# [3] = system: Vibrio campbellii BAA 1118 (AI-1); assay: microbe, parasite or virus in culture; format: cell-based; settings: for EC50: Vibrio campbellii, BAA1118, 16 h, read-out: EC50 (concentration that halved the communication); for SI (selectivity index): ratio IC50 (viability) / EC50 (communication), BAA 1118
# Outline: as §1
# [4] = ABTS cation radical scavenging; settings: vitamin C equivalent antioxidant capacity
# Outline: (§2)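 ABTS and DPPH radical scavenging gauged antiradical activity. Reducing capacity was measured as reduction of Folin–Ciocalteu reagent and of ferric ions (FRAP).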
# [5] = system: P. aeruginosa (CCM, 3955); assay: Inhibition of biofilm formation (surface colonization); format: cell-based; settings: Pseudomonas aeruginosa; highest tested concentration 100 µM
# Method: Biofilm formation is a fully organized, multistep process in which bacteria are constantly communicating with each other.
# The activity of derivatives on biofilms was tested with S. aureus (ATCC, 25923) and P. aeruginosa (CCM, 3955), according to the previously described method. The highest tested concentration of derivatives was 100 µM. The activity was evaluated using an IC50 comparison between the parent compound and its derivative.
# [6] = system: pooled male rat microsomal liver membranes; assay: Inhibition of lipid peroxidation induced by tert-butyl hydroperoxide; format: biochemical; settings: male rat microsomes, read-out: ILP IC50
# Method: The antiradical activity was evaluated by the ability to scavenge ABTS and DPPH radicals. Reducing capacity was assessed by the ability to reduce the Folin–Ciocalteu reagent (FCR) and ferric ions (FRAP). The ability to inhibit lipid peroxidation of pooled male rat microsomal liver membranes induced by tert-butyl hydroperoxide was also evaluated and the results were expressed as IC50 values.
# [7] = Folin-Ciocalteu reagent reduction; settings: gallic acid equivalents
# Outline: as §2
# DPPH radical scavenging = settings: 1,1-diphenyl-2-picrylhydrazyl radical scavenging
# Outline: as §2
# [8] = system: Vibrio campbellii BAA 1118 (AI-1); assay: Viability of the quorum-sensing reporter culture (resazurin assay), AI-1 strain; format: cell-based; settings: BAA1118, V. campbellii BAA 1118, resazurin assay, read-out: IC50 (concentration that halved the viability)
# Outline: as §1
# [9] = system: Vibrio campbellii BAA 1119 (AI-2); assay: Viability of the quorum-sensing reporter culture (resazurin assay), AI-2 strain; format: cell-based; settings: BAA1119, V. campbellii BAA 1119, resazurin assay, read-out: IC50 (concentration that halved the viability)
# Outline: as §1
smiles,measurement,setting,value
"COc1cc([C@H]2Oc3cc([C@H]4Oc5cc(O)cc(O)c5C(=O)[C@@H]4O)ccc3O[C@@H]2CO)ccc1O [3a, silybin A, reference compound]",Effect on viability in combination with chloramphenicol,[1]; flavonoid 40 µM,-
same,Effect on viability in combination with gentamicin,[1]; flavonoid 40 µM,-
same,EC50,[2],17.1 ± 0.5 µM
same,SI (selectivity index),[2],7.0 ± 0.4
same,EC50,[3],97.1 ± 1 µM
same,SI (selectivity index),[3],1.3 ± 0.1
same,ABTS [CEAC],[4],0.50 ± 0.03 CEAC
same,IC50,[5],77 µM
same,IC50,[6],213 µM
same,FCR [GAE],[7],1.35 ± 0.06 GAE
same,IC50,DPPH radical scavenging,322 µM
same,IC50,[8],131 ± 3.7 µM
same,IC50,[9],120 ± 3.1 µM
"COc1cc([C@@H]2Oc3cc([C@H]4Oc5cc(O)c(Br)c(O)c5C(=O)[C@@H]4O)ccc3O[C@H]2CO)ccc1O [compound 13, 6-Bromosilybin B]",Effect on viability in combination with chloramphenicol,[1]; flavonoid 40 µM,-
same,EC50,[2],26.1 ± 1.3 µM
same,SI (selectivity index),[2],2.0 ± 0.1
same,EC50,[3],14.5 ± 0.5 µM
same,SI (selectivity index),[3],1.11 ± 0.04
same,ABTS [CEAC],[4],0.75 ± 0.02 CEAC
same,IC50,[6],728 µM
same,FCR [GAE],[7],1.17 ± 0.04 GAE
same,IC50,DPPH radical scavenging,354 µM
same,IC50,[8],16.1 ± 0.1 µM
same,IC50,[9],52.7 ± 0.6 µM
"COc1cc([C@@H]2Oc3cc([C@H]4Oc5c(Br)c(O)c(Br)c(O)c5C(=O)[C@@H]4O)ccc3O[C@H]2CO)cc(Br)c1O [compound 22, 6,8,21-tribromosilybin B]",Effect on viability in combination with chloramphenicol,[1]; flavonoid 40 µM,-
same,Effect on viability in combination with gentamicin,[1]; flavonoid 40 µM,reversion of resistance
same,Gentamicin-resistant phenotype of S. aureus (result in words),[1]; compound 40 µM,reversed the resistant phenotype to a sensitive one; also recorded: revert the resistant phenotype into a sensitive one
same,EC50,[2],12 ± 0.5 µM
same,SI (selectivity index),[2],2.9 ± 0.3
same,EC50,[3],4.3 ± 0.3 µM
same,SI (selectivity index),[3],1.7 ± 0.1
same,ABTS [CEAC],[4],0.17 ± 0.01 CEAC
same,IC50,[6],255 µM
same,FCR [GAE],[7],1.01 ± 0.04 GAE
same,IC50,DPPH radical scavenging,238 µM
same,IC50,[8],7.3 ± 0.1 µM
same,IC50,[9],34.4 ± 1.8 µM
"COc1cc([C@@H]2Oc3c(O)cc([C@H]4Oc5cc(O)cc(O)c5C(=O)[C@@H]4O)cc3[C@H]2CO)ccc1O [compound 5, silychristin A, reference compound]",Effect on viability in combination with chloramphenicol,[1]; flavonoid 40 µM,-
same,Effect on viability in combination with gentamicin,[1]; flavonoid 40 µM,-
same,EC50,[2],> 200 µM
same,EC50,[3],> 200 µM
same,ABTS [CEAC],[4],1.73 ± 0.02 CEAC
same,IC50,[5],73 µM
same,IC50,[6],129 µM
same,FCR [GAE],[7],1.87 ± 0.07 GAE
same,IC50,DPPH radical scavenging,47.2 µM
same,IC50,[8],> 200 µM
same,IC50,[9],> 200 µM
"O=C1c2c(O)c(Br)c(O)c(Br)c2O[C@H](c2ccc(O)c(O)c2)[C@H]1O [compound 8, 6,8-dibromotaxifolin]",Effect on viability in combination with chloramphenicol,[1]; flavonoid 40 µM,-
same,EC50,[2],10.1 ± 0.4 µM
same,SI (selectivity index),[2],10.8 ± 0.6
same,EC50,[3],38.1 ± 2 µM
same,SI (selectivity index),[3],1.5 ± 0.1
same,ABTS [CEAC],[4],1.04 ± 0.05 CEAC
same,IC50,[6],22.5 ± 1 µM
same,FCR [GAE],[7],2.08 ± 0.04 GAE
same,IC50,DPPH radical scavenging,4.37 µM
same,IC50,[8],55.5 ± 1 µM
same,IC50,[9],109.3 ± 0.8 µM
"COc1cc([C@@H]2Oc3cc([C@H]4Oc5cc(O)cc(O)c5C(=O)[C@@H]4O)ccc3O[C@H]2CO)ccc1O [3b, silybin B, reference compound]",Effect on viability in combination with chloramphenicol,[1]; flavonoid 40 µM,-
same,Effect on viability in combination with gentamicin,[1]; flavonoid 40 µM,-
same,EC50,[2],22.3 ± 0.5 µM
same,SI (selectivity index),[2],6.8 ± 0.2
same,EC50,[3],121.5 ± 0.6 µM
same,SI (selectivity index),[3],0.96 ± 0.01
same,ABTS [CEAC],[4],0.55 ± 0.05 CEAC
same,IC50,[5],105 µM
same,IC50,[6],291 µM
same,FCR [GAE],[7],1.39 ± 0.08 GAE
same,IC50,DPPH radical scavenging,259 µM
same,IC50,[8],116.6 ± 0.9 µM
same,IC50,[9],152 ± 2.4 µM
"COc1cc([C@@H]2Oc3cc([C@H]4Oc5c(Br)c(O)c(Br)c(O)c5C(=O)[C@@H]4O)ccc3O[C@H]2CO)ccc1O [compound 14, 6,8-dibromosilybin B]",Effect on viability in combination with chloramphenicol,[1]; flavonoid 40 µM,-
same,EC50,[2],19.3 ± 0.5 µM
same,SI (selectivity index),[2],3.1 ± 0.3
same,EC50,[3],14.7 ± 0.7 µM
same,SI (selectivity index),[3],1.1 ± 0.1
same,ABTS [CEAC],[4],0.35 ± 0.04 CEAC
same,IC50,[6],378 µM
same,FCR [GAE],[7],1.10 ± 0.05 GAE
same,IC50,DPPH radical scavenging,256 µM
same,IC50,[8],16.6 ± 0.8 µM
same,IC50,[9],60.2 ± 3.4 µM
"COc1cc([C@H]2Oc3cc([C@H]4Oc5cc(O)c(Br)c(O)c5C(=O)[C@@H]4O)ccc3O[C@@H]2CO)ccc1O [compound 11, 6-Bromosilybin A]",Effect on viability in combination with chloramphenicol,[1]; flavonoid 40 µM,-
same,EC50,[2],9.4 ± 0.5 µM
same,SI (selectivity index),[2],5.5 ± 0.3
same,EC50,[3],24.4 ± 0.7 µM
same,SI (selectivity index),[3],2.1 ± 0.1
same,ABTS [CEAC],[4],0.60 ± 0.04 CEAC
same,IC50,[6],449 µM
same,FCR [GAE],[7],1.06 ± 0.04 GAE
same,IC50,DPPH radical scavenging,472 µM
same,IC50,[8],51.7 ± 0.7 µM
same,IC50,[9],51.5 ± 0.6 µM
"O=c1c(O)c(-c2ccc(O)c(O)c2)oc2c(Br)c(O)cc(O)c12 [compound 9, 8-bromoquercetin]",Effect on viability in combination with chloramphenicol,[1]; flavonoid 40 µM,-
same,Effect on viability in combination with gentamicin,[1]; flavonoid 40 µM,-
same,EC50,[2],0.4 ± 0.02 µM
same,SI (selectivity index),[2],2.9 ± 0.3
same,EC50,[3],25.6 ± 0.5 µM
same,SI (selectivity index),[3],1.08 ± 0.04
same,ABTS [CEAC],[4],2.92 ± 0.28 CEAC
same,IC50,[6],38.3 ± 1.9 µM
same,FCR [GAE],[7],2.01 ± 0.06 GAE
same,IC50,DPPH radical scavenging,2.44 µM
same,IC50,[8],27.8 ± 0.5 µM
same,IC50,[9],1.1 ± 0.1 µM
"COc1cc(C2Oc3cc(-c4oc5cc(O)cc(O)c5c(=O)c4O)ccc3OC2CO)ccc1O (centres unmarked) [compound 4, 2,3-dehydrosilybin AB, reference compound]",Effect on viability in combination with chloramphenicol,[1]; flavonoid 40 µM,-
same,Effect on viability in combination with gentamicin,[1]; flavonoid 5 µM,reversion of resistance [5 µM]
same,Gentamicin-resistant phenotype of S. aureus (result in words),[1]; compound 5 µM,reversed
same,EC50,[2],10.2 ± 0.4 µM
same,SI (selectivity index),[2],2.5 ± 0.2
same,EC50,[3],59.9 ± 2 µM
same,SI (selectivity index),[3],2.7 ± 0.2
same,ABTS [CEAC],[4],1.46 ± 0.08 CEAC
same,IC50,[6],34.6 ± 2.3 µM
same,FCR [GAE],[7],1.68 ± 0.03 GAE
same,IC50,DPPH radical scavenging,14.4 µM
same,IC50,[8],163 ± 3.8 µM
same,IC50,[9],25.3 ± 1 µM
"O=c1c(O)c(-c2ccc(O)c(O)c2)oc2c(Br)c(O)c(Br)c(O)c12 [compound 10, 6,8-dibromoquercetin]",Effect on viability in combination with chloramphenicol,[1]; flavonoid 40 µM,-
same,Effect on viability in combination with gentamicin,[1]; flavonoid 40 µM,-
same,EC50,[2],0.7 ± 0.02 µM
same,SI (selectivity index),[2],5.0 ± 0.3
same,EC50,[3],7.3 ± 0.4 µM
same,SI (selectivity index),[3],1.9 ± 0.2
same,ABTS [CEAC],[4],2.63 ± 0.19 CEAC
same,IC50,[6],28.6 ± 1.1 µM
same,FCR [GAE],[7],1.70 ± 0.02 GAE
same,IC50,DPPH radical scavenging,3.59 µM
same,IC50,[8],13.8 ± 0.5 µM
same,IC50,[9],3.5 ± 0.1 µM

# Source: publication PMC9738062, “Selectively Halogenated Flavonolignans—Preparation and Antibacterial Activity” (International Journal of Molecular Sciences, 2022)
